Measured values reported in patent US20200061092A1, “METHODS AND COMPOSITIONS FOR TREATING DISORDERS ASSOCIATED WITH MUSCLE WEAKNESS” (priority 2018, published 2020).
Where “and” joins values, the source holds several entries; their conditions need not be identical. Equal values may be shown once.

What was measured:
[1] = tested on: F-α-DG (functionally glycosylated α-DG); experiment: Western blot (IIH6C4) quantification and laminin overlay assay of muscle lysates from ribitol-treated P448L mice; format: in vivo, mouse; conditions: for F-α-DG by IIH6C4 western blot, % of normal (C57) levels: 6 months (FIG. 3c)
Protocol: Ribitol was purchased from Sigma (A5502 Adonitol, ≥98%, Sigma, St. Louis) and dissolved in drinking water to the final concentration of 5% or 10%. […] mice aged at 4 weeks were treated with 5% ribitol drinking water for 1 month and […] mice aged at 7 weeks were treated with 5% ribitol drinking water for 3 months and 6 months. All the mice were randomly assigned to either treatment or control groups. And a minimum number of 4 mice were used for each group. No animal was excluded. […] female breeders were given 10% ribitol in drinking water during pregnancy, and pups continued to be treated with 10% ribitol in drinking water until they were euthanized at 19 weeks of age. Untreated age-matched […] and wild-type C57BL/6 mice were used as controls. The animals were terminated at the end of each treatment time point and tissues including heart, diaphragm, TA, quadriceps, liver, spleen and kidney were collected for analyses. For western blot analysis, tissues were homogenized in extraction buffer (50 mM Tris-HCl pH 8.0, 150 mM NaCl, and 1% Triton X-100), supplemented with 1× protease inhibitor cocktail (Sigma-Aldrich). Protein concentration was quantified by Bradford assay (Bio-Rad DC protein assay). Eighty μg of protein was loaded on a 4-15% Bio-Rad Mini-PROTEAN TGX gel (Bio-Rad) and immunoblotted. Amount of total protein loaded for C57 mice was half of the amount loaded for the […] mice. Nitrocellulose membranes (Bio-Rad) were blocked with 5% milk in 1×PBS for 2 hr at room temperature and then incubated with the following primary antibodies overnight at 4° C.: IIH6C4 (1:2000), AF6868 (R&D Systems) (1:1000) and α-actin (Sigma) (1:1000). Appropriate horseradish peroxidase (HRP)-conjugated secondary antibodies were incubated for 2 hr at room temperature. All blots were developed by electrochemiluminescence immunodetection (PerkinElmer). For IIH6C4 band quantification from western blot ImageJ software was used. For laminin overlay assay, nitrocellulose membranes were blocked with laminin overlay buffer (10 mM ethanolamine, 140 mM NaCl, 1 mM MgCl2, and 1 mM CaCl2, pH 7.4) containing 5% nonfat dry milk for 1 hr at 4° C. followed by incubation with laminin from Engelbreth-Holm-Swarm murine sarcoma basement membrane (L2020) (Sigma) at a concentration of 2 μg/ml overnight at 4° C. in laminin overlay buffer. Membranes were then incubated with rabbit anti-laminin antibody (Sigma) (1:1500) followed by goat anti-rabbit HRP-conjugated IgG secondary antibody (Santa Cruz Biotechnology) (1:3000). Blots were saturated with Western-Lightning Plus ECL (Perkin-Elmer) before exposure to and developing of GeneMate auto-radiographic film (VWR).

[2] = tested on: FKRP P448L mutant mice; experiment: Whole body plethysmography (respiratory function) in P448L mice; format: in vivo, mouse
Protocol: Respiratory functional analysis in conscious, freely moving 18 and 31 weeks old mice were measured using a whole-body plethysmography technique. The plethysmograph apparatus (Emka Technologies, Falls Church, Va.) was connected to a ventilation pump for the purpose of maintaining a constant air flow, a differential pressure transducer, a usbAMP signal amplifier, and a computer running EMKA iox2 software with the respiratory flow analyzer module, which was used to detect pressure changes due to breathing and recording the transducer signal. An initial amount of 20 mL of air was injected and withdrawn via a 20 mL syringe into the chamber for the purpose of calibration. Mice were placed inside the “free moving” plethysmograph chamber and allowed to acclimate for 5 min in order to minimize any effects of stress related changes in ventilation. Resting ventilation was measured for a duration of 15 min after the acclimation period. Body temperatures of all mice were assumed to be 37° C. and to remain constant during the ventilation protocol.

[3] = tested on: FKRP P448L mutant mice; experiment: Ribitol toxicity evaluation: body weight, histology of liver, kidney and spleen, serum biochemical markers; format: in vivo, mouse
Protocol: All animal studies were approved by the Institutional Animal Care and Use Committee (IACUC) of Carolinas Medical Center. All mice were housed in the vivarium of Carolinas Medical Center following animal care guidelines of the institute. Animals were ear tagged prior to group assignment. Food and water were available ad libitum during all phase of the study. Body weight was measured from 6 weeks to 19 weeks of age.
Ribitol was purchased from Sigma (A5502 Adonitol, ≥98%, Sigma, St. Louis) and dissolved in drinking water to the final concentration of 5% or 10%. P448L mice aged at 4 weeks were treated with 5% ribitol drinking water for 1 month and P448L mice aged at 7 weeks were treated with 5% ribitol drinking water for 3 months and 6 months. All the mice were randomly assigned to either treatment or control groups. And a minimum number of 4 mice were used for each group. No animal was excluded. P448L female breeders were given 10% ribitol in drinking water during pregnancy, and pups continued to be treated with 10% ribitol in drinking water until they were euthanized at 19 weeks of age. Untreated age-matched P448L and wild-type C57BL/6 mice were used as controls. The animals were terminated at the end of each treatment time point and tissues including heart, diaphragm, TA, quadriceps, liver, spleen and kidney were collected for analyses.
Frozen tissues were processed for hematoxylin and eosin (H&E) and Masson's Trichrome staining following standard procedures. Muscle cross-sectional fiber equivalent diameter was determined from tibialis anterior and quadriceps stained with H&E using MetaMorph v7.7 Software (Molecular Devices). Percentage of centrally nucleated myofibers were manually quantified from the same tissue sections stained with H&E. Fibrotic area represented by blue staining in the Masson's Trichrome stained sections was quantified from heart, diaphragm, tibialis anterior and quadriceps using ImageJ software. For all the morphometric analyses, a total of 300 to 400 fibers from two representative 20× magnification images per each muscle per animal were used.

[4] = Serum ribitol measurement by LC/MS-MS; format: in vivo
Source text: Ribitol was purchased from Sigma (A5502). Sera were collected, and blinded samples were placed in individual wells of a 96-well plate and analyzed by LC/MS-MS. An Applied Biosystems Sciex 4000 (Applied Biosystems; Foster City, Calif.) equipped with a Shimadzu HPLC (Shimadzu Scientific Instruments, Inc.: Columbia, Md.) and Leap auto-sampler (LEAP Technologies; Carrboro, N.C.) were used to detect ribitol from samples and synthetic compound. […] MeOH:ACN (1:1). The following gradient was used: 0-12 min, 5% buffer B; 13-14 min, 95% buffer B, 15-17 min, 5% buffer B. Under these conditions, ribitol eluted at 8.3 min. The metabolite was analyzed using electrospray ionization mass spectrometry operated in positive ion mode, ESI+. Compound concentrations in tissue samples were determined based on standard curves prepared by serial dilutions (200-0.01 μM) of the compound in MeOH:ACN (1:1).

[5] = 10% ribitol from pregnancy, 18 weeks of age
[6] = 5% ribitol in drinking water (n = 4)

SMILES: OC[C@@H](O)[C@@H](O)[C@@H](O)CO [ribitol]
- Functionality of glycosylated α-DG by laminin overlay assay ([1]; 5% ribitol, 6 months): supported by laminin overlay assay
- F-α-DG by IIH6C4 western blot, % of normal (C57) levels ([1]; 5% ribitol, cardiac muscle): up to 14%
- F-α-DG by IIH6C4 western blot, % of normal (C57) levels ([1]; 5% ribitol, diaphragm): ≤ 17%
- Functionality of glycosylated α-DG by laminin overlay assay ([1]; 10% ribitol from pregnancy to 19 weeks): supported by laminin overlay assay
- F-α-DG by IIH6C4 western blot, % of normal levels ([1]; 10% ribitol from pregnancy to 19 weeks, diaphragm): 18%
- F-α-DG by IIH6C4 western blot, % of normal levels ([1]; 10% ribitol from pregnancy to 19 weeks, heart): 14%
- F-α-DG by IIH6C4 western blot, % of normal levels ([1]; 10% ribitol from pregnancy to 19 weeks, limb muscle): 26%
- Tidal volume (TV), expiratory volume (EV), minute volume (MV) vs untreated ([2]; 5% ribitol, 3 and 6 months): trend of improvement
- Improvement in EV and MV ([2]; 5% ribitol, 6 months): statistically significant
- Peak inspiratory flow (PIF) and peak expiratory flow (PEF) ([2]; 5% ribitol, 6 months): Improvement was also observed
- Expired volume (EV), relaxation time (RT), enhanced pause (Penh) [2, 5]: improvement
- Minute volume (MV) and end-expiratory pause (EEP) vs untreated [2, 5]: reaching significant difference
- Histology of liver, kidney and spleen (H&E) ([3]; 5% ribitol, 3 or 6 months): normal structure without degeneration and inflammation
- Serum markers of liver and kidney function (ALP, ALT, t-Bil, c-Bil, unc-Bil, BUN, Crea), treated vs untreated ([3]; 5% ribitol, 6 months): No statistical significance
- Serum triglycerides (TRG) and glucose (GLU), treated vs untreated ([3]; 5% ribitol, 6 months): similar
- Body weight vs age-matched untreated P448L ([3]; 10% ribitol from embryonic stage or 5% ribitol from 7 weeks of age, all time points): No significant difference
- Effect on pregnancy, embryo development, body weight and overall behavior ([3]; oral ribitol from pregnancy to adult): does not affect
- Mean serum ribitol [4, 6]: 2355 ug ug/L
- Serum ribitol, individual animals [4, 6]: 924 ng/ml and 4221 ng/ml and 3184 ng/ml and 1092, ng/ml
- Therapeutic serum concentration in excess of normal ribitol serum levels ([4]; about 10 mg/L vs normal serum level): roughly 1000 ×
- Tolerability at therapeutic serum concentration ([4]; serum about 10 mg/L): no observable side effects
